Source: patent publication US11254668B2, “Pyrazolo[1,5-A]pyrazin-4-yl and related derivatives” (Pfizer Inc., priority 2017, dated 2022)

Columns and labels:
Format in all cases: biochemical
JAK2 = JAK2 (Homo sapiens (Human), UniProt O60674); assay: JAK Caliper Enzyme Assay at 1 mM ATP, JAK2
Description: Compounds of the invention were evaluated by in vitro methods to determine their respective ability to inhibit the JAK kinases (TYK2, JAK1, JAK2, JAK3).
The human JAK inhibitory activity was determined by using a microfluidic assay to monitor phosphorylation of a synthetic peptide by the recombinant human kinase domain of each of the four members of the JAK family, JAK1, JAK2, JAK3 and TYK2. […] Each assay condition was optimized for enzyme concentration and room temperature incubation time to obtain a conversion rate of 20% to 30% phosphorylated peptide product. Reactions were terminated by the addition of stop buffer containing EDTA. Utilizing the LabChip 3000 mobility shift technology (Caliper Life Science), each assay reaction was sampled to determine the level of phosphorylation. This technology is separation-based, allowing direct detection of fluorescently labeled substrates and products. Separations are controlled by a combination of vacuum pressure and electric field strength optimized for each peptide substrate.
JAK Caliper Enzyme Assay at 1mM ATP
Compounds were added to a 384-well plate.
The data was collected using the HTS Well Analyzer software from Caliper Life Sciences. The data output for data analysis is the percent product converted calculated on peak height (Equation 1). % product converted=100*((product)/(product+substrate)) Equation 1: […]
The percent effect at each compound concentration was calculated based on the positive and negative control well contained within each assay plate (Equation 2). […] The negative control wells contained DMSO alone (at the same concentration as the compound wells) that was used to set the baseline activity in the assay (i.e., uninhibited JAK1, JAK2, JAK3 or TYK2). % effect=100*([…](positive control-negative control)) Equation 2: […]
The percent effect was plotted against the compound concentration compound.

JAK1 = JAK1 (Homo sapiens (Human), UniProt P23458); assay: JAK Caliper Enzyme Assay at 1 mM ATP, JAK1
Summary of the method: (§1)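 Recombinant human kinase domains phosphorylated a fluorescent synthetic peptide at room temperature, with enzyme level and time tuned to 20% to 30% conversion; EDTA stop buffer ended reactions. Mobility-shift separation gave percent product from peak heights, normalised to DMSO and positive controls, and IC50s came from concentration–effect curves.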

JAK3 = JAK3 (Homo sapiens (Human), UniProt P52333); assay: JAK Caliper Enzyme Assay at 1 mM ATP, JAK3
Summary of the method: as §1

TYK2 = TYK2 (Homo sapiens (Human), UniProt P29597); assay: JAK Caliper Enzyme Assay at 1 mM ATP, TYK2
Summary of the method: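 Recombinant human kinase domains phosphorylate a fluorescent synthetic peptide at 1 mM ATP and room temperature, with enzyme level and time tuned to 20–30% conversion before an EDTA stop. Microfluidic mobility-shift separation gives percent product from peak heights. Percent effect against plate controls (DMSO baseline) is plotted versus compound concentration.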

Chain of JAK1 (P23458 875-1153): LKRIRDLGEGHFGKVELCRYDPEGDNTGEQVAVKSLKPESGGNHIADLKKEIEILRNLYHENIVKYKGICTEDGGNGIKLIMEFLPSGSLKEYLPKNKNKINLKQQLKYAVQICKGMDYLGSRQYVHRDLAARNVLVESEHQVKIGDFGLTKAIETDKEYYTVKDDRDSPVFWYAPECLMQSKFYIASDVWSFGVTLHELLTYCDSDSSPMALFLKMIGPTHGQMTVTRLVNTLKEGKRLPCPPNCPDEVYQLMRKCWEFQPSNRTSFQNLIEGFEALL
Chain of JAK2 (O60674 849-1124): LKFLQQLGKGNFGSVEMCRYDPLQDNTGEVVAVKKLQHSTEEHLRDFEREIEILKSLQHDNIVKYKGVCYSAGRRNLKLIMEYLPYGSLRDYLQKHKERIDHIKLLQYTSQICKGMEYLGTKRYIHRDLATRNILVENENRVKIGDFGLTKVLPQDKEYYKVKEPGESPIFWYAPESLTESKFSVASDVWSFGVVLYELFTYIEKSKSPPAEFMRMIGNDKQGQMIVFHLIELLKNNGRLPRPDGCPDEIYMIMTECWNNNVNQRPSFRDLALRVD
Chain of TYK2 (P29597 897-1176): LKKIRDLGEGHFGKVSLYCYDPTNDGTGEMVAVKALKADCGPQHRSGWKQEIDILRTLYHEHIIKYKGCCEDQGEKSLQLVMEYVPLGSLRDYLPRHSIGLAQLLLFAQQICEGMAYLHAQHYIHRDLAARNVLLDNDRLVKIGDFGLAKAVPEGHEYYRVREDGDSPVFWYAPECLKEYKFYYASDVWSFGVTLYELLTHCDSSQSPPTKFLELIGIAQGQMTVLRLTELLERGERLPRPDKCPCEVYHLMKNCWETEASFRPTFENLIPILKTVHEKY
Chain of JAK3 (P52333 822-1111): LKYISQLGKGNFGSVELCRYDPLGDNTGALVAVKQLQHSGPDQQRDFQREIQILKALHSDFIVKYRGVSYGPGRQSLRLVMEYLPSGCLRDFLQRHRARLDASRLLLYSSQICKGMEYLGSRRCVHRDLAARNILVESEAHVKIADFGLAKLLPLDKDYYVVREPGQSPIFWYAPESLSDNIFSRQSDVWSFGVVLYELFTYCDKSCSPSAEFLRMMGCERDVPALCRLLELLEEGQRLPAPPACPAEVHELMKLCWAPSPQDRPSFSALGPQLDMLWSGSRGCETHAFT

| Compound | IC50 (JAK2) [nM] | IC50 (JAK1) [nM] | IC50 (JAK3) [nM] | IC50 (TYK2) [nM] |
| --- | --- | --- | --- | --- |
| CNC(=O)[C@H]1C[C@](CC#N)(n2ccc(-c3nc(-c4ccn[nH]4)cc4ncccc34)n2)C1 [Example 27, trans-3-(cyanomethyl)-N-methyl-3-{3-[7-(1H-pyrazol-5-yl)-1,6-naphthyridin-5-yl]-1H-pyrazol-1-yl}cyclobutanecarboxamide] | > 10000 | > 10000 | > 10000 | 7560 |
| N#CCC1(n2ccc(-c3nc(-c4ccn[nH]4)cc4ncccc34)n2)CC(CO)C1 (stereo not drawn) [Example 28, [trans-3-(hydroxymethyl)-1-{3-[7-(1H-pyrazol-5-yl)-1,6-naphthyridin-5-yl]-pyrazol-1-yl}cyclobutyl]acetonitrile] | 1790 | 2570 | > 10000 | 207 |
| N#CCC1(n2ccc(-c3nc(-c4ccn[nH]4)cc4ncccc34)n2)CC(CO)C1 (stereo not drawn) [Example 29, [cis-3-(hydroxymethyl)-1-{3-[7-(1H-pyrazol-5-yl)-1,6-naphthyridin-5-yl]-1H-pyrazol-1-yl}cyclobutyl]acetonitrile] | 2340 | 3800 | > 10000 | 437 |
| CO[C@H]1C[C@](CC#N)(n2ccc(-c3nc(-c4ccn[nH]4)cc4ncccc34)n2)C1 [Example 30, (trans-3-methoxy-1-{3-[7-(1H-pyrazol-5-yl)-1,6-naphthyridin-5-yl]-1H-pyrazol-1-yl}cyclobutyl)acetonitrile] | 1770 | 1960 | > 10000 | 75 |
| CO[C@H]1C[C@@](CC#N)(n2ccc(-c3nc(-c4ccn[nH]4)cc4ncccc34)n2)C1 [Example 31, (cis-3-methoxy-1-{3-[7-(1H-pyrazol-5-yl)-1,6-naphthyridin-5-yl]-1H-pyrazol-1-yl}cyclobutyl)acetonitrile] | 955 | 1800 | > 10000 | 53 |
| CC(=O)NC1CC(CC#N)(n2ccc(-c3nc(-c4cc[nH]n4)cc4ncccc34)n2)C1 (stereo not drawn) [Example 32, N-[trans-3-(cyanomethyl)-3-{3-[7-(1H-pyrazol-3-yl)-1,6-naphthyridin-5-yl]-pyrazol-1-yl}cyclobutyl]acetamide] | 3430 | 5830 | > 10000 | 730 |
| C[C@]1(C#N)C[C@@](CC#N)(n2ccc(-c3nc(-c4cc[nH]n4)cc4ncccc34)n2)C1 [Example 35, cis-3-(cyanomethyl)-1-methyl-3-{3-[7-(1H-pyrazol-3-yl)-1,6-naphthyridin-5-yl]-1H-pyrazol-1-yl}cyclobutanecarbonitrile] | 339 | 569 | > 10000 | 44 |
| C[C@]1(C#N)C[C@](CC#N)(n2ccc(-c3nc(-c4cc[nH]n4)cc4ncccc34)n2)C1 [Example 36, trans-3-(cyanomethyl)-1-methyl-3-{3-[7-(1H-pyrazol-3-yl)-1,6-naphthyridin-5-yl]-1H-pyrazol-1-yl}cyclobutanecarbonitrile] | 5740 | 7100 | > 10000 | 1060 |
| N#CCC1(n2ccc(-c3nc(-c4cc[nH]n4)cc4ncccc34)n2)CC2(COC2)C1 [Example 37, (6-{3-[7-(1H-pyrazol-3-yl)-1,6-naphthyridin-5-yl]-1H-pyrazol-1-yl}-2-oxaspiro[3.3]hept-6-yl)acetonitrile] | 2830 | 4280 | > 10000 | 369 |
| CC(=O)N1CC2(C1)CC(CC#N)(n1ccc(-c3nc(-c4cc[nH]n4)cc4ncccc34)n1)C2 [Example 38, (2-acetyl-6-{3-[7-(1H-pyrazol-3-yl)-1,6-naphthyridin-5-yl]-1H-pyrazol-1-yl}-2-azaspiro[3.3]hept-6-yl)acetonitrile] | 5630 | > 10000 | > 10000 | 4020 |
| CC(C)(O)[C@H]1C[C@](CC#N)(n2ccc(-c3nc(-c4cc[nH]n4)cc4ncccc34)n2)C1 [Example 39, [trans-3-(2-hydroxypropan-2-yl)-1-{3-[7-(1H-pyrazol-3-yl)-1,6-naphthyridin-5-yl]-1H-pyrazol-1-yl}cyclobutyl]acetonitrile] | 2080 | 2770 | > 10000 | 205 |
| CC(C)(O)[C@H]1C[C@@](CC#N)(n2ccc(-c3nc(-c4cc[nH]n4)cc4ncccc34)n2)C1 [Example 40, [cis-3-(2-hydroxpropan-2-yl)-1-{3-[7-(1H-pyrazol-3-yl)-1,6-naphthyridin-5-yl]-1H-pyrazol-1-yl}cyclobutyl]acetonitrile] | 4590 | 7300 | > 10000 | 730 |
| Cc1cc(-c2cc3ncccc3c(-c3ccn([C@]4(CC#N)C[C@@H](C#N)C4)n3)n2)n[nH]1 [Example 43, trans-3-(cyanomethyl)-3-{3-[7-(5-methyl-1H-pyrazol-3-yl)-1,6-naphthyridin-5-yl]-1H-pyrazol-1-yl}cyclobutanecarbonitrile] | 91 | 502 | > 10000 | 14 |
| Cc1cc(-c2cc3ncccc3c(-c3ccn([C@]4(CC#N)C[C@H](C#N)C4)n3)n2)n[nH]1 [Example 44, cis-3-(cyanomethyl)-3-{3-[7-(5-methyl-1H-pyrazol-3-yl)-1,6-naphthyridin-5-yl]-1H-pyrazol-1-yl}cyclobutanecarbonitrile] | 18 | 66 | 2880 | 7 |
| Cc1cc(-c2cc3ncccc3c(-c3ccn([C@]4(CC#N)C[C@](C)(C#N)C4)n3)n2)n[nH]1 [Example 45, cis-3-(cyanomethyl)-1-methyl-3-{3-[7-(5-methyl-1H-pyrazol-3-yl)-1,6-naphthyridin-5-yl]-1H-pyrazol-1-yl}cyclobutanecarbonitrile] | 125 | 739 | > 10000 | 33 |
| Cc1cc(-c2cc3ncccc3c(-c3ccn([C@]4(CC#N)C[C@@](C)(C#N)C4)n3)n2)n[nH]1 [Example 46, trans-3-(cyanomethyl)-1-methyl-3-{3-[7-(5-methyl-1H-pyrazol-3-yl)-1,6-naphthyridin-5-yl]-1H-pyrazol-1-yl}cyclobutanecarbonitrile] | 2770 | 9680 | > 10000 | 867 |
| CCN1CC(CC#N)(n2ccc(-c3nc(-c4cc(CO)[nH]n4)cc4ncccc34)n2)C1 [Example 47, [1-ethyl-3-(3-{7-[5-(hydroxymethyl)-1H-pyrazol-3-yl]-1,6-naphthyridin-5-yl}-1H-pyrazol-1-yl)azetidin-3-yl]acetonitrile] | 1940 | 7720 | > 10000 | 254 |
| N#CCC1(n2ccc(-c3nc(-c4cc(CO)[nH]n4)cc4ncccc34)n2)CC(C#N)C1 (stereo not drawn) [Example 48, trans-3-(cyanomethyl)-3-(3-{7-[5-(hydroxymethyl)-1H-pyrazol-3-yl]-1,6-naphthyridin-5-yl}-1H-pyrazol-1-yl)cyclobutanecarbonitrile] | 73 | 292 | > 10000 | 15 |
| N#CC[C@]1(n2ccc(-c3nc(-c4cc(CO)[nH]n4)cc4ncccc34)n2)C[C@@H](C#N)C1 [Example 49, cis-3-(cyanomethyl)-3-(3-{7-[5-(hydroxymethyl)-1H-pyrazol-3-yl]-1,6-naphthyridin-5-yl}-1H-pyrazol-1-yl)cyclobutanecarbonitrile] | 16 | 42 | 2320 | 7 |
| CO[C@H]1C[C@](CC#N)(n2ccc(-c3nc(-c4cc(CO)n[nH]4)cc4ncccc34)n2)C1 [Example 50, [trans-1-(3-{7-[3-(hydroxymethyl)-1H-pyrazol-5-yl]-1,6-naphthyridin-5-yl}-1H-pyrazol-1-yl)-3-methoxycyclobutyl]acetonitrile] | 861 | 2750 | > 10000 | 59 |
| CO[C@H]1C[C@@](CC#N)(n2ccc(-c3nc(-c4cc(CO)n[nH]4)cc4ncccc34)n2)C1 [Example 51, [cis-1-(3-{7-[3-(hydroxymethyl)-1H-pyrazol-5-yl]-1,6-naphthyridin-5-yl}-1H-pyrazol-1-yl)-3-methoxycyclobutyl]acetonitrile] | 509 | 1910 | > 10000 | 45 |
